From US10822317B2, “Methods and compositions for wound healing” (QBiotics Limited, priority 2013, dated 2020)

System: wounds following necrosis and sloughing of spontaneous tumours
Assay: Resolution of wounds after sloughing of spontaneous tumours treated by intratumoural injection, equine
Assay type: in vivo
Details: for Average days from tumour slough to wound closure: Equine
Procedure: Veterinary clinical data on speed of resolution of wounds that formed following necrosis and sloughing of spontaneous tumours that had been treated by intratumoural injection of Compound 1 (30% 1,2 propanediol formulation at either 0.5 or 1.0 mg/mL concentration) in twenty-four companion animals are summarised in Table 17.
Note that all wounds were managed as open wounds and no bandaging, dressings, lotions or concomitant medications were used in any of these cases.

SMILES: CC=C(C)C(=O)OC1C(C)C2(O)C(C3OC3(CO)C(O)C3(O)C(=O)C(C)=CC32)C2C(C)(C)C12OC(=O)C(C)CC (centres unmarked) [Compound 1, 12-tigloyl-13-(2-methylbutanoyl)-6,7-epoxy-4,5,9,12,13,20-hexahydroxy-1-tigliaen-3-one]
- No. of horses: Tissue deficit at wound site, Minor (5 to 10% tissue deficit across the original wound area): 0
- No. of horses: Tissue deficit at wound site, Nil or minimal (<5% tissue deficit across the original wound area): 6
- No. of horses: Tissue deficit at wound site, Substantial (>10% tissue deficit across the original wound area): 0
- Average days from tumour slough to wound closure (wound size class 0.25 to 9 cm^2, 4 cases): 20 ± 12 days
- Average days from tumour slough to wound closure (wound size class 9 to 50 cm^2, 2 cases): 53 ± 22 days
- No. of horses: Hair regrowth on wound area, Sparse (Hair covers <50% of original wound area): 0
- No. of horses: Hair regrowth on wound area, Partial (Hair covers >50% of original wound area): 1
- No. of horses: Hair regrowth on wound area, Full (Hair covers >95% of original wound area): 5
- No. of horses: Scarring & skin thickening, Minor (Localised scar covering <10% of original wound area): 1
- No. of horses: Scarring & skin thickening, Substantial (Scarring covering >10% of original wound area): 1
- No. of horses: Scarring & skin thickening, Nil or minimal (Scarring not obvious visually or by touch): 4
- No. of horses: Change in hair colour, No (healed wound site): 3
- No. of horses: Change in hair colour, Yes (healed wound site): 3
- No. of horses: Skin pigmentation, Hyperpigmentation (healed wound site): 1
- No. of horses: Skin pigmentation, Hypopigmentation (healed wound site): 1
- No. of horses: Skin pigmentation, Normal (healed wound site): 3
- No. of horses: Skin pigmentation, Patchy (healed wound site): 1
